Reference: patent publication US8263656B2 (Hoffmann-La Roche Inc., priority 2008, dated 2012)

Each molecule was assayed against T1, human CRTH2 (Homo sapiens, UniProt Q9Y5Y4) (assay: Human CRTH2 Receptor Binding Assay (whole cell, [3H]ramatroban competition)). Settings: CHO-K1 cells expressing human CRTH2 and G-alpha16; 20 nM [3H]ramatroban; 1 hour, room temperature.
T1 construct: expressed in transfected cells
T1 sequence (Q9Y5Y4 1-395): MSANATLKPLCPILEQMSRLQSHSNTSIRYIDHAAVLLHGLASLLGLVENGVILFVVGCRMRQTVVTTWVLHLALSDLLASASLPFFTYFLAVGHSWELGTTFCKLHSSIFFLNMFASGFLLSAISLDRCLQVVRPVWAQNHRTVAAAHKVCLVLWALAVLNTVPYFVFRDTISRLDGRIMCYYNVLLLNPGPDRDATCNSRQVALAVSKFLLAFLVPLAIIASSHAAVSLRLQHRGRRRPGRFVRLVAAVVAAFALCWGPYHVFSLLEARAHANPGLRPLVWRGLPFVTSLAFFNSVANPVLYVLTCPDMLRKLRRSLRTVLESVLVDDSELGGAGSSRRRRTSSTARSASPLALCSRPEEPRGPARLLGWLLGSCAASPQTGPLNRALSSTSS
Text: A whole cell receptor binding assay using [^3H]ramatroban as the competing radioactive ligand was employed to evaluate the compound binding activity to human CRTH2. The radioactive ligand [^3H]ramatroban was synthesized according to Sugimoto et. al. (Eur. J. Pharmacol. 524, 30-37, 2005) to a specific activity of 42 Ci/mmol.
A cell line stably expressing human CRTH2 was established by transfecting CHO-K1 cells with two mammalian expression vectors that harbored human CRTH2 and G-alpha16 cDNAs, respectively, using FuGene® 6 transfection reagent (from Roche). Stable clones expressing CRTH2 were selected by staining each clone with BM16 (BD Pharmingen™ from BD Biosciences, a division of Becton, Dickinson and Company), which is a rat monoclonal antibody to human CRTH2. The cells were maintained as monolayer cultures in Ham's F-12 medium containing 10% fetal bovine serum, 100 units/mL penicillin, […] streptomycin, 2 mM glutamine, 0.5 mg/mL G418 (geneticin) for CRTH2, and 0.2 mg/mL hygromycin-B (for G-alpha 16). For whole cell receptor binding assay, the monolayer cells were rinsed once with PBS (phosphate buffered saline), dissociated using diammonium ethylenediaminetetraacetate (Versene™ EDTA from the Dow Chemical Company), and suspended in PBS containing 10 mM MgCl2 and 0.06% BSA (bovine serum albumin) at 1.5×10^6 cells/mL.
The binding reactions (0.2 mL) were performed in 96-well plates at room temperature in PBS containing 1.5×10^5 cells, 10 mM MgCl2, 0.06% BSA, 20 nM [^3H]ramatroban, and test compound at various concentrations. After 1 hour of binding reactions, the cells were harvested on GF™/B filter microplates (microtiter plates with embedded glass fiber from PerkinElmer, Inc.) and washed 5 times with PBS using a Filtermate™ Harvester (a cell harvester that harvests and washes cells from microplates from PerkinElmer, Inc.). The radioactivities bound to the cells were determined using a microplate scintillation counter (TopCount® NXT, from PerkinElmer, Inc.) after adding 50 μL of Microscint™ 20 scintillation fluid (from PerkinElmer, Inc.) to each well of the filter plates. The radioactivity from non-specific binding was determined by replacing compound with 10 μM of 15(R)-15-methyl PGD2 (from Cayman Chemical Company) in the reaction mixtures. The radioactivity bound to the cells in the absence of compound (total binding) was determined by replacing compound with 0.25% of DMSO (dimethyl sulfoxide) in the reaction mixture. Specific binding data were obtained by subtracting the radioactivity of non-specific binding from each binding data.
The IC50 value is defined as the concentration of the tested compound that is required for 50% inhibition of total specific binding. In order to calculate the IC50 value, the percent inhibition data were determined for 7 concentrations for each compound. The percent inhibition for a compound at each concentration was calculated according to the following formula, [1-(specific binding in the presence of compound)/(total specific binding)]×100. The IC50 value was then obtained by fitting the percent inhibition data to a sigmoidal dose-response (4 parameter logistic) model in the XLfit® software Excel add-in program [from ID Business Solutions Ltd., model 205, where F(x)=(A+(B−A)/(1+((C/x)^D)))].

Compound | IC50
O=C(O)COc1cc(F)cc2c1CCCC2NS(=O)(=O)c1cc(Br)cc(C(F)(F)F)c1 (centres unmarked) [Example 1-28, [5-(3-Bromo-5-trifluoromethyl-benzenesulfonyl-amino)-3-fluoro-5,6,7,8-tetrahydro-naphthalen-1-yloxy]-acetic acid] | 4.2 nM
O=C(O)COc1c(F)c(F)cc2c1CCCC2NS(=O)(=O)c1cc(Br)cc(C(F)(F)F)c1 (centres unmarked) [Example 1-29, [5-(3-Bromo-5-trifluoromethyl-benzenesulfonyl-amino)-2,3-difluoro-5,6,7,8-tetrahydro-naphthalen-1-yloxy]-acetic acid] | 18.2 nM
O=C(O)COc1c(F)c(F)cc2c1CCCC2NS(=O)(=O)c1ccc(Cl)cc1Cl (centres unmarked) [Example 1-30, [5-(2,4-Dichloro-benzenesulfonyl-amino)-2,3-difluoro-5,6,7,8-tetrahydro-naphthalen-1-yloxy]-acetic acid] | 46.1 nM
O=C(O)COc1cc(F)cc2c1CCCC2NS(=O)(=O)c1ccc(Cl)cc1Cl (centres unmarked) [Example 1-31, [5-(2,4-Dichloro-benzenesulfonyl-amino)-3-fluoro-5,6,7,8-tetrahydro-naphthalen-1-yloxy]-acetic acid] | 154 nM
O=C(O)COc1c(F)c(F)cc2c1CCCC2NS(=O)(=O)c1cc(Cl)ccc1Cl (centres unmarked) [Example 1-32, [5-(2,5-Dichloro-benzenesulfonyl-amino)-2,3-difluoro-5,6,7,8-tetrahydro-naphthalen-1-yloxy]-acetic acid] | 269 nM
O=C(O)COc1cc(F)cc2c1CCCC2NS(=O)(=O)c1cc(Cl)ccc1Cl (centres unmarked) [Example 1-33, [5-(2,5-Dichloro-benzenesulfonyl-amino)-3-fluoro-5,6,7,8-tetrahydro-naphthalen-1-yloxy]-acetic acid] | 81 nM
CC(C)c1cccc(-c2ccc(S(=O)(=O)NC3CCCc4c3cc(F)c(F)c4OCC(=O)O)nc2)c1 (centres unmarked) [Example 1-34, {2,3-Difluoro-5-[5-(3-isopropyl-phenyl)-pyridine-2-sulfonylamino]-5,6,7,8-tetrahydro-naphthalen-1-yloxy}-acetic acid] | 8.6 nM
CC(C)c1cccc(-c2ccc(S(=O)(=O)NC3CCCc4c(OCC(=O)O)cc(F)cc43)nc2)c1 (centres unmarked) [Example 1-35, {3-Fluoro-5-[5-(3-isopropyl-phenyl)-pyridine-2-sulfonylamino]-5,6,7,8-tetrahydro-naphthalen-1-yloxy}-acetic acid] | 7 nM
CC(C)c1cccc(-c2ccc(S(=O)(=O)NC3CCCc4c(OCC(=O)O)cc(Cl)cc43)nc2)c1 (centres unmarked) [Example 1-36, {3-Chloro-5-[5-(3-isopropyl-phenyl)-pyridine-2-sulfonylamino]-5,6,7,8-tetrahydro-naphthalen-1-yloxy}-acetic acid] | 4.5 nM
O=C(O)COc1cc(Br)cc2c1CCC[C@H]2NS(=O)(=O)c1cc(Br)cc(C(F)(F)F)c1 [Example 1-37, [(R)-3-Bromo-5-(3-bromo-5-trifluoromethyl-benzenesulfonyl-amino)-5,6,7,8-tetrahydro-naphthalen-1-yloxy]-acetic acid] | 2.8 nM
O=C(O)COc1c(F)c(Cl)cc2c1CCC[C@H]2NS(=O)(=O)c1cc(F)cc(C(F)(F)F)c1 [Example 1-38, [(R)-3-Chloro-2-fluoro-5-(3-fluoro-5-trifluoromethyl-benzenesulfonyl-amino)-5,6,7,8-tetrahydro-naphthalen-1-yloxy]-acetic acid] | 3.4 nM

Second part, the molecule after the results:

IC50 | Compound
2.6 nM | O=C(O)COc1c(F)c(Cl)cc2c1CCC[C@H]2NS(=O)(=O)c1cc(Br)cc(C(F)(F)F)c1 [Example 1-39, [(R)-5-(3-Bromo-5-trifluoromethyl-benzenesulfonyl-amino)-3-chloro-2-fluoro-5,6,7,8-tetrahydro-naphthalen-1-yloxy]-acetic acid]
6.3 nM | O=C(O)COc1c(F)c(Cl)cc2c1CCC[C@H]2NS(=O)(=O)c1ccc(Cl)cc1Cl [Example 1-40, [(R)-3-Chloro-5-(2,4-dichloro-benzenesulfonyl-amino)-2-fluoro-5,6,7,8-tetrahydro-naphthalen-1-yloxy]-acetic acid]
3.4 nM | O=C(O)COc1cc(Cl)cc2c1CCC[C@H]2NS(=O)(=O)c1cc(F)cc(C(F)(F)F)c1 [Example 1-41, [(R)-3-Chloro-5-(3-fluoro-5-trifluoromethyl-benzenesulfonyl-amino)-5,6,7,8-tetrahydro-naphthalen-1-yloxy]-acetic acid]
3.2 nM | O=C(O)COc1cc(Cl)cc2c1CCC[C@H]2NS(=O)(=O)c1cc(Br)cc(C(F)(F)F)c1 [Example 1-42, [(R)-5-(3-Bromo-5-trifluoromethyl-benzenesulfonyl-amino)-3-chloro-5,6,7,8-tetrahydro-naphthalen-1-yloxy]-acetic acid]
10.9 nM | O=C(O)COc1cc(Cl)cc2c1CCC[C@H]2NS(=O)(=O)c1cc(Cl)ccc1Cl [Example 1-43, [(R)-3-Chloro-5-(2,5-dichloro-benzenesulfonyl-amino)-5,6,7,8-tetrahydro-naphthalen-1-yloxy]-acetic acid]
16.4 nM | CC(C)c1cccc(-c2ccc(S(=O)(=O)NC3CCCc4c3cc(Cl)c(F)c4OCC(=O)O)nc2)c1 (centres unmarked) [Example 1-44, {3-Chloro-2-fluoro-5-[5-(3-isopropyl-phenyl)-pyridine-2-sulfonylamino]-5,6,7,8-tetrahydro-naphthalen-1-yloxy}-acetic acid]
8 nM | CN(C1CCCc2c1cc(Cl)c(F)c2OCC(=O)O)S(=O)(=O)c1cc(C(F)(F)F)cc(C(F)(F)F)c1 (centres unmarked) [Example 2-1, {5-[(3,5-Bis-trifluoromethyl-benzenesulfonyl)-methyl-amino]-3-chloro-2-fluoro-5,6,7,8-tetrahydro-naphthalen-1-yloxy}-acetic acid]
8.3 nM | CN(C1CCCc2c(OCC(=O)O)cc(Cl)cc21)S(=O)(=O)c1cc(C(F)(F)F)cc(C(F)(F)F)c1 (centres unmarked) [Example 2-4, {5-[(3,5-Bis-trifluoromethyl-benzenesulfonyl)-methyl-amino]-3-chloro-5,6,7,8-tetrahydro-naphthalen-1-yloxy}-acetic acid]
5.9 nM | CN([C@@H]1CCCc2c(OCC(=O)O)cc(Cl)cc21)S(=O)(=O)c1cc(C(F)(F)F)cc(C(F)(F)F)c1 [Example 2-5, {(R)-5-[(3,5-Bis-trifluoromethyl-benzenesulfonyl)-methyl-amino]-3-chloro-5,6,7,8-tetrahydro-naphthalen-1-yloxy}-acetic acid]
92.9 nM | CN(C1CCCc2c(OCC(=O)O)cc(Cl)cc21)S(=O)(=O)c1ccc(Cl)cc1Cl (centres unmarked) [Example 2-6, {3-Chloro-5-[(2,4-dichloro-benzenesulfonyl)-methyl-amino]-5,6,7,8-tetrahydro-naphthalen-1-yloxy}-acetic acid]
333 nM | CN(C1CCCc2c1cc(Cl)c(Cl)c2OCC(=O)O)S(=O)(=O)c1cc(C(F)(F)F)cc(C(F)(F)F)c1 (centres unmarked) [Example 2-7, {5-[(3,5-Bis-trifluoromethyl-benzenesulfonyl)-methyl-amino]-2,3-dichloro-5,6,7,8-tetrahydro-naphthalen-1-yloxy}-acetic acid]
638 nM | Cc1c(Cl)cc2c(c1OCC(=O)O)CCCC2N(C)S(=O)(=O)c1cc(C(F)(F)F)cc(C(F)(F)F)c1 (centres unmarked) [Example 2-8, {5-[(3,5-Bis-trifluoromethyl-benzenesulfonyl)-methyl-amino]-3-chloro-2-methyl-5,6,7,8-tetrahydro-naphthalen-1-yloxy}-acetic acid]
